Results as given in BindingDB's records for doi:10.1021/jm960697s (Pfizer, 1997).
pIC50, pKi: −log10 of the molar value.

How the values were obtained:
[1] = biological target: Alpha-1B adrenergic receptor (Mesocricetus auratus) (UniProt P18841); assay: Binding affinity was tested on cloned hamster Alpha-1B adrenergic receptor
[2] = biological target: T1, 3-oxo-5-alpha-steroid 4-dehydrogenase 1 (Homo sapiens, UniProt P18405); assay: Binding affinity for human 5 alpha reductase 1 isozyme
T1 sequence (P18405 whole entry): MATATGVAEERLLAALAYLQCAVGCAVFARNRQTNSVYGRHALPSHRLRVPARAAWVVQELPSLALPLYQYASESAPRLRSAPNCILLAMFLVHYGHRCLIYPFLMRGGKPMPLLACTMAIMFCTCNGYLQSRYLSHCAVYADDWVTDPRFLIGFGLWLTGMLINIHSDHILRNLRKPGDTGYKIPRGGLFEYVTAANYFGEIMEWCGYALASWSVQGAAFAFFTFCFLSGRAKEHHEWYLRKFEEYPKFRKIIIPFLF

Sequence of Alpha-1B adrenergic receptor (Mesocricetus auratus) (P18841 whole entry, looked up): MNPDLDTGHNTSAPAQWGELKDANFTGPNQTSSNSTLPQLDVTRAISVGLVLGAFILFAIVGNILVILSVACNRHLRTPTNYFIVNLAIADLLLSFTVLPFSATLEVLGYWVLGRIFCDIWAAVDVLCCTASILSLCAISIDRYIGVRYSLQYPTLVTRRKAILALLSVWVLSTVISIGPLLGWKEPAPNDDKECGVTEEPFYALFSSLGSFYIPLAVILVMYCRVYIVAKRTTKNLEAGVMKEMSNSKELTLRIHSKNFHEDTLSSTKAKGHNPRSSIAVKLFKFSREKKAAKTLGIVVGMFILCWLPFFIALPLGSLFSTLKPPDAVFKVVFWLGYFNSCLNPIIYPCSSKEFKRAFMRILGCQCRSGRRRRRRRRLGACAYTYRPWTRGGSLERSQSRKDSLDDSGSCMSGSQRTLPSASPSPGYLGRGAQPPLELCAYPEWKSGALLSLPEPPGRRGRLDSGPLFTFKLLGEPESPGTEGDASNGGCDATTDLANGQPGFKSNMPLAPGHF

pIC50 [1] | pKi [2] | Structure (SMILES)
6.69 |  | COc1ccc(CC2c3cc(OC)c(OC)cc3CCN2c2nc(N)c3cc(OC)c(OC)cc3n2)cc1OC (stereo not drawn) [2-[1-(3,4-Dimethoxy-benzyl)-6,7-dimethoxy-3,4-dihydro-1H-isoquinolin-2-yl]-6,7-dimethoxy-quinazolin-4-ylamine]
 | 9.70 | CC1C(=O)CC[C@@]2(C)C1=NCC1C2CC[C@@]2(C)C1CC[C@@H]2C(=O)Nc1cc(C(F)(F)F)ccc1C(F)(F)F (stereo partly drawn) [(1S,9aR,11aS)-6,9a,11a-Trimethyl-7-oxo-2,3,3a,3b,4,5,7,8,9,9a,9b,10,11,11a-tetradecahydro-1H-cyclopenta[i]phenanthridine-1-carboxylic acid (2,5-bis-trifluoromethyl-phenyl)-amide]
 | 9.70 | C[C@]12CCC(=O)C(Cl)C1=NCC1C2CC[C@@]2(C)C1CC[C@@H]2C(=O)Nc1cc(C(F)(F)F)ccc1C(F)(F)F (stereo partly drawn) [(1S,9aR,11aS)-6-Chloro-9a,11a-dimethyl-7-oxo-2,3,3a,3b,4,5,7,8,9,9a,9b,10,11,11a-tetradecahydro-1H-cyclopenta[i]phenanthridine-1-carboxylic acid (2,5-bis-trifluoromethyl-phenyl)-amide]
